Legend:
Type in all cases: functional
Staphylococcus aureus [1] = assay: Antimicrobial activity against Staphylococcus aureus at 100 ppm after 48 hr by agar well diffusion method; details: read-out: IZ
[2] = Antioxidant activity assessed as inhibition of NBT reduction at 100 ug/ml
Escherichia coli [3] = assay: Antimicrobial activity against Escherichia coli at 100 ppm after 48 hr by agar well diffusion method; details: read-out: IZ
[4] = Antioxidant activity assessed as inhibition of NBT reduction at 80 ug/ml
[5] = Antioxidant activity assessed as inhibition of NBT reduction at 40 ug/ml
[6] = Antioxidant activity assessed as inhibition of NBT reduction at 60 ug/ml
[7] = Antioxidant activity assessed as inhibition of NBT reduction at 20 ug/ml
Talaromyces marneffei [8] = assay: Antimicrobial activity against Talaromyces marneffei at 100 ug/ml after 48 hr by agar well diffusion method; details: read-out: IZ
Aspergillus niger [9] = assay: Antimicrobial activity against Aspergillus niger at 100 ug/ml after 48 hr by agar well diffusion method; details: read-out: IZ
Talaromyces marneffei [10] = assay: Antimicrobial activity against Talaromyces marneffei at 100 ppm after 48 hr by agar well diffusion method; details: read-out: IZ
Aspergillus niger [11] = assay: Antimicrobial activity against Aspergillus niger at 100 ppm after 48 hr by agar well diffusion method; details: read-out: IZ
Staphylococcus aureus [12] = assay: Antimicrobial activity against Staphylococcus aureus at 100 ug/ml after 48 hr by agar well diffusion method; details: read-out: IZ
Escherichia coli [13] = assay: Antimicrobial activity against Escherichia coli at 100 ug/ml after 48 hr by agar well diffusion method; details: read-out: IZ

`COc1cc(-c2cc(-c3cc(C(C)C)c(O)cc3C)[nH]c(=O)c2C#N)cc(OC)c1OC` gave a zone of inhibition at 100 ppm (Staphylococcus aureus [1]) of 10 mm, an inhibition [2] of 84.5% and a zone of inhibition at 100 ppm (Escherichia coli [3]) of 11 mm. It also gave an inhibition [4] of 82%, an inhibition [5] of 55% and an inhibition [6] of 71%. The inhibition [7] was 35%.

With `OC(Cn1cncn1)(Cn1cncn1)c1ccc(F)cc1F` [FLUCONAZOLE] the zone of inhibition at 100 µg/mL (Talaromyces marneffei [8]) was 17 mm and the zone of inhibition at 100 µg/mL (Aspergillus niger [9]) was 16 mm.

With `COc1cccc(-c2cc(-c3cc(C(C)C)c(O)cc3C)[nH]c(=O)c2C#N)c1` the zone of inhibition at 100 ppm (Talaromyces marneffei [10]) was 11 mm, the zone of inhibition at 100 ppm (Aspergillus niger [11]) was 11 mm and the zone of inhibition at 100 ppm (Staphylococcus aureus [1]) was 13 mm. It also gave an inhibition [2] of 49%, a zone of inhibition at 100 ppm (Escherichia coli [3]) of 14 mm and an inhibition [4] of 43%. The inhibition [5] was 30%, the inhibition [6] was 38% and the inhibition [7] was 22%.

Work on `COc1ccc(-c2cc(-c3cc(C(C)C)c(O)cc3C)[nH]c(=O)c2C#N)c(OC)c1` yielded a zone of inhibition at 100 ppm (Talaromyces marneffei [10]) of 10 mm, a zone of inhibition at 100 ppm (Aspergillus niger [11]) of 10 mm and a zone of inhibition at 100 ppm (Staphylococcus aureus [1]) of 14 mm. For the same molecule, the inhibition [2] was 58%, the zone of inhibition at 100 ppm (Escherichia coli [3]) was 13 mm and the inhibition [4] was 55%. It also gave an inhibition [5] of 37.5%, an inhibition [6] of 48.5% and an inhibition [7] of 27%.

In the case of `Cc1cc(O)c(C(C)C)cc1-c1cc(-c2ccc(N(C)C)cc2)c(C#N)c(=O)[nH]1`, the zone of inhibition at 100 ppm (Talaromyces marneffei [10]) is reported as 13 mm, the zone of inhibition at 100 ppm (Aspergillus niger [11]) is reported as 14 mm and the zone of inhibition at 100 ppm (Staphylococcus aureus [1]) is reported as 14 mm. The inhibition [2] was 68%, the zone of inhibition at 100 ppm (Escherichia coli [3]) was 14 mm and the inhibition [4] was 66.5%. It also gave an inhibition [5] of 43%, an inhibition [6] of 53% and an inhibition [7] of 30%.

`Cc1cc(O)c(C(C)C)cc1-c1cc(-c2ccccc2)c(C#N)c(=O)[nH]1` showed a zone of inhibition at 100 ppm (Talaromyces marneffei [10]) of 9 mm, a zone of inhibition at 100 ppm (Aspergillus niger [11]) of 9 mm and a zone of inhibition at 100 ppm (Staphylococcus aureus [1]) of 11 mm. For the same molecule, the inhibition [2] was 41%, the zone of inhibition at 100 ppm (Escherichia coli [3]) was 10 mm and the inhibition [4] was 58%. The inhibition [5] was 29%, the inhibition [6] was 34% and the inhibition [7] was 22%.

`COc1ccc(-c2cc(-c3cc(C(C)C)c(O)cc3C)[nH]c(=O)c2C#N)cc1` showed a zone of inhibition at 100 ppm (Talaromyces marneffei [10]) of 10 mm, a zone of inhibition at 100 ppm (Aspergillus niger [11]) of 10 mm and a zone of inhibition at 100 ppm (Staphylococcus aureus [1]) of 13 mm. It also gave an inhibition [2] of 54%, a zone of inhibition at 100 ppm (Escherichia coli [3]) of 14 mm and an inhibition [4] of 47.5%. For the same molecule, the inhibition [5] was 35%, the inhibition [6] was 43% and the inhibition [7] was 24%.

For `COc1cc(-c2cc(-c3cc(C(C)C)c(O)cc3C)[nH]c(=O)c2C#N)ccc1O`, the zone of inhibition at 100 ppm (Talaromyces marneffei [10]) was 11 mm, the zone of inhibition at 100 ppm (Aspergillus niger [11]) was 11 mm and the zone of inhibition at 100 ppm (Staphylococcus aureus [1]) was 15 mm. The inhibition [2] was 44%, the zone of inhibition at 100 ppm (Escherichia coli [3]) was 14 mm and the inhibition [4] was 42%. For the same molecule, the inhibition [5] was 32%, the inhibition [6] was 37.5% and the inhibition [7] was 26%.

In the case of `COc1cc(OC)c(-c2cc(-c3cc(C(C)C)c(O)cc3C)[nH]c(=O)c2C#N)c(OC)c1`, the zone of inhibition at 100 ppm (Staphylococcus aureus [1]) is reported as 11 mm, the inhibition [2] is reported as 82.5% and the zone of inhibition at 100 ppm (Escherichia coli [3]) is reported as 10 mm. The inhibition [4] was 79%, the inhibition [5] was 52.6% and the inhibition [6] was 66%. It also gave an inhibition [7] of 32%.

`Cc1onc(-c2ccccc2Cl)c1C(=O)N[C@@H]1C(=O)N2[C@@H]1SC(C)(C)[C@@H]2C(=O)O` [CLOXACILLIN] showed a zone of inhibition at 100 µg/mL (Staphylococcus aureus [12]) of 18 mm and a zone of inhibition at 100 µg/mL (Escherichia coli [13]) of 17 mm.

`Cc1cc(O)c(C(C)C)cc1-c1cc(-c2ccco2)c(C#N)c(=O)[nH]1` gave a zone of inhibition at 100 ppm (Talaromyces marneffei [10]) of 9 mm, a zone of inhibition at 100 ppm (Aspergillus niger [11]) of 10 mm and a zone of inhibition at 100 ppm (Staphylococcus aureus [1]) of 13 mm. For the same molecule, the inhibition [2] was 70%, the zone of inhibition at 100 ppm (Escherichia coli [3]) was 12 mm and the inhibition [4] was 64%. The inhibition [5] was 42.5%, the inhibition [6] was 55.2% and the inhibition [7] was 26%.

With `Cc1cc(O)c(C(C)C)cc1-c1cc(-c2cccs2)c(C#N)c(=O)[nH]1` the zone of inhibition at 100 ppm (Talaromyces marneffei [10]) was 11 mm, the zone of inhibition at 100 ppm (Aspergillus niger [11]) was 10 mm and the zone of inhibition at 100 ppm (Staphylococcus aureus [1]) was 14 mm. It also gave an inhibition [2] of 68%, a zone of inhibition at 100 ppm (Escherichia coli [3]) of 13 mm and an inhibition [4] of 63%. The inhibition [5] was 41%, the inhibition [6] was 54.3% and the inhibition [7] was 26%.

With `Cc1ccc(C(C)C)c(O)c1` [THYMOL] the zone of inhibition at 100 ppm (Talaromyces marneffei [10]) was 7 mm, the zone of inhibition at 100 ppm (Aspergillus niger [11]) was 8 mm and the zone of inhibition at 100 ppm (Staphylococcus aureus [1]) was 9 mm. The inhibition [2] was 31%, the zone of inhibition at 100 ppm (Escherichia coli [3]) was 8 mm and the inhibition [4] was 27.5%. For the same molecule, the inhibition [5] was 16%, the inhibition [6] was 22.5% and the inhibition [7] was 10%.

With `Cc1cc(O)c(C(C)C)cc1-c1cc(-c2ccccc2Cl)c(C#N)c(=O)[nH]1` the zone of inhibition at 100 ppm (Talaromyces marneffei [10]) was 12 mm, the zone of inhibition at 100 ppm (Aspergillus niger [11]) was 11 mm and the zone of inhibition at 100 ppm (Staphylococcus aureus [1]) was 14 mm. It also gave an inhibition [2] of 34%, a zone of inhibition at 100 ppm (Escherichia coli [3]) of 15 mm and an inhibition [4] of 32%. For the same molecule, the inhibition [5] was 20%, the inhibition [6] was 26% and the inhibition [7] was 12%.

In the case of `Cc1cc(O)c(C(C)C)cc1-c1cc(-c2ccccc2[N+](=O)[O-])c(C#N)c(=O)[nH]1`, the zone of inhibition at 100 ppm (Talaromyces marneffei [10]) is reported as 11 mm, the zone of inhibition at 100 ppm (Aspergillus niger [11]) is reported as 12 mm and the zone of inhibition at 100 ppm (Staphylococcus aureus [1]) is reported as 13 mm. The inhibition [2] was 37.5%, the zone of inhibition at 100 ppm (Escherichia coli [3]) was 14 mm and the inhibition [4] was 35%. It also gave an inhibition [5] of 25.5%, an inhibition [6] of 31% and an inhibition [7] of 20%.

With `COc1ccc(-c2cc(-c3cc(C(C)C)c(O)cc3C)[nH]c(=O)c2C#N)cc1OC` the zone of inhibition at 100 ppm (Talaromyces marneffei [10]) was 10 mm, the zone of inhibition at 100 ppm (Aspergillus niger [11]) was 9 mm and the zone of inhibition at 100 ppm (Staphylococcus aureus [1]) was 13 mm. For the same molecule, the inhibition [2] was 61%, the zone of inhibition at 100 ppm (Escherichia coli [3]) was 13 mm and the inhibition [4] was 58%. For the same molecule, the inhibition [5] was 44%, the inhibition [6] was 52% and the inhibition [7] was 25%.

Source: ChEMBL document CHEMBL3044545, “Synthesis and evaluation of antioxidant and antimicrobial properties of thymol containing pyridone moieties” (2012)
